The nature of data set [1]: Displacement of [3H]Ins(1,4,5)P3 from Ins(1,4,5)P3 receptor in bovine adrenal cortex. In kind it is tissue-based, Bos taurus.
The nature of data set [2]: Inhibition of alkaline phosphatase.
A short description of data set [3]: Chemical stability in presence of alkaline phosphatase. Format: physicochemical.

The source made the active and inactive calls. No cut-off for these calls is given here.

For the molecule `O[C@@H]1[C@@H](OP(O)(O)=S)[C@H](OP(O)(O)=S)CC[C@H]1OP(O)(O)=S`, in data set [1], the Kd (in general, a measure of binding affinity in units of concentration) was 0.81 µM. For the same molecule, the outcome in data set [2] was inactive. For the same molecule, the Stability entry in data set [3] (isolated protein) was “Stable”.

With `O=P(O)(O)O[C@@H]1[C@H](O)[C@H](O)[C@@H](OP(=O)(O)O)[C@H](OP(=O)(O)O)[C@H]1O` [INS(1,4,5)P3], the Kd in data set [3] is 0.054 µM.

The values above are taken from ChEMBL document CHEMBL1143942, “Deoxygenated phosphorothioate inositol phosphate analogs: synthesis, phosphatase stability, and binding affinity” (Bioorg Med Chem, 2008).
